Key:
[1] = tested on: Plasmodium falciparum; test: Antiplasmodial activity against Plasmodium falciparum W2; format: functional, organism-based
[2] = tested on: Plasmodium falciparum; test: Antiplasmodial activity against Plasmodium falciparum D6; format: functional, organism-based

Row | IC50 [1] [µM] | IC50 [2] [µM] | SMILES
1 | 24.4 | 18.7 | COC(=O)[C@]12CCC(C)(C)C[C@H]1C1=CC[C@@H]3[C@@]4(C)CC[C@H](OC(C)=O)C(C)(C)[C@@H]4CC[C@@]3(C)[C@]1(C)CC2
2 | 16.5 | 11.6 | C=C1C(CCOC(=O)/C=C/c2ccc(O)c(O)c2)=CC(=O)[C@H]2[C@H]1CC[C@H]1C(C)(C)CCC[C@]21C
3 | 22.8 | 17.3 | C=C1C(CCO)=CC(=O)[C@H]2[C@H]1CC[C@H]1C(C)(C)CCC[C@]21C
4 | 15.6 | 18.7 | C[C@H]1C(CCO)=CC(=O)[C@H]2[C@H]1CC[C@H]1C(C)(C)CCC[C@]21C
5 | 2.74 | 4.44 | CC[C@H](/C=C/[C@@H](C)[C@H]1CC[C@H]2[C@@H]3CC=C4C[C@@H](O[C@@H]5OC[C@@H](O)[C@H](O)[C@H]5O[C@@H]5O[C@H](CO)[C@@H](O)[C@H](O)[C@H]5O)CC[C@]4(C)[C@H]3CC[C@]12C)C(C)C
6 | 30.7 | 34.4 | CC(=O)O[C@@]1(C)CCC[C@]2(C)[C@H]3Cc4occc4[C@H](C)[C@@H]3CC[C@@]12O
7 | 30.3 | 25.7 | CC(=O)O[C@@]1(C)CCC[C@@]2(C)[C@H]1CC[C@H]1[C@@H](C)c3ccoc3C[C@@H]12
8 | 26.2 | 23.8 | CC1(C)CC[C@]2(C(=O)O)CC[C@]3(C)C(=CC[C@@H]4[C@@]5(C)CC[C@H](O)C(C)(C)[C@@H]5CC[C@]43C)[C@@H]2C1 [OLEANOLIC_ACID]
9 | > 50 | > 50 | C[C@H]1c2ccoc2C[C@H]2[C@H]1CC[C@@]1(O)C(C)(C)CCC[C@]21C [VOUCAPAN-5 ALPHA-OL]

Row | SMILES | IC50 [1] [µM] | IC50 [2] [µM]
10 | CC[C@H](CC[C@@H](C)[C@H]1CC[C@H]2[C@@H]3CC=C4C[C@@H](O)CC[C@]4(C)[C@H]3CC[C@]12C)C(C)C [BETA-SITOSTEROL] | > 50 | > 50
11 | CC[C@H](/C=C/[C@@H](C)[C@H]1CC[C@H]2[C@@H]3CC=C4C[C@@H](O)CC[C@]4(C)[C@H]3CC[C@]12C)C(C)C [STIGMASTEROL] | > 50 | > 50
